Consider 13 compounds from US8865734B2 (priority 2010, dated 2014).

In brackets after ≈: the same amount, converted by molar mass.

The subject of assay [1] is M. tuberculosis inside the host macrophage. The assay is described as follows: QIM: Quantification of Intracellular Mycobacteria (intracellular growth assay, phenotypic cell-based). The note with it: Mycobacterium tuberculosis; MIC, 80% bacterial growth inhibition; intracellular growth; read-out: QIM. The method, boiled down: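 Phenotypic high-content assay measuring M. tuberculosis multiplication inside host macrophages, run as dose response. MIC is the minimum compound concentration giving 80% bacterial growth inhibition.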

Assay [2] concerns in vitro grown Mycobacteria (M. tuberculosis). The assay is described as follows: QUM: Quantification of in vitro grown Mycobacteria (in vitro growth fluorescence assay). Format: cell-based. The note with it: Mycobacterium tuberculosis; MIC, 80% bacterial growth inhibition; in vitro growth; read-out: QUM. A digest of the protocol:
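Mycobacterium tuberculosis grown in vitro was quantified by fluorescence across compound dose responses. MIC is defined as the minimum concentration producing 80% growth inhibition.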

In the case of `CCc1nc2cc(Cl)ccn2c1C(=O)NCc1ccc(-c2ccc(C#N)cc2C)cc1` [Compound 132, 7-Chloro-N-((4′-cyano-2′-methylbiphenyl-4-yl)methyl)-2-ethylimidazo[1,2-a]pyridine-3-carboxamide], the MIC in assay [1] and in assay [2] was < 1 µM in each case.

Take `CCc1nc2cc(Cl)ccn2c1C(=O)NCc1ccc(-c2ccc(F)cc2Cl)cc1` [Compound 133, 7-Chloro-N-((2′-chloro-4′-fluorobiphenyl-4-yl)methyl)-2-ethylimidazo[1,2-a]pyridine-3-carboxamide]: the MIC in assay [1] and in assay [2] was < 1 µM each time.

On to `CCc1nc2cc(Cl)ccn2c1C(=O)NCc1ccc(-c2ccncc2)cc1` [Compound 134, 7-Chloro-2-ethyl-N-(4-(pyridin-4-yl)benzyl)imidazo[1,2-a]pyridine-3-carboxamide], for which the MIC in assay [1] is < 1 µM; in assay [2], 1 to 20 µM (≈ 0.391 to 7.82 µg/mL).

`CCc1nc2cc(Cl)ccn2c1C(=O)NCc1ccc(-c2ccc(OC)cn2)cc1` [Compound 135, 7-Chloro-2-ethyl-N-(4-(5-methoxypyridin-2-yl)benzyl)imidazo[1,2-a]pyridine-3-carboxamide]: the MIC was < 1 µM in assay [1] and 1 to 20 µM (≈ 0.421 to 8.42 µg/mL) in assay [2].

As to `CCc1nc2cc(Cl)ccn2c1C(=O)NCc1ccc(-c2ccc[nH]2)cc1` [Compound 136, N-(4-(1H-Pyrrol-2-yl)benzyl)-7-chloro-2-ethylimidazo[1,2-a]pyridine-3-carboxamide], the MIC in assay [1] and in assay [2] was 1 to 20 µM (≈ 0.379 to 7.58 µg/mL) throughout.

`CCc1nc2cc(Cl)ccn2c1C(=O)NCc1ccc(-c2ccco2)cc1` [Compound 137, 7-Chloro-2-ethyl-N-(4-(furan-2-yl)benzyl)imidazo[1,2-a]pyridine-3-carboxamide]: the MIC in assay [1] is < 1 µM; in assay [2] it was 1 to 20 µM (≈ 0.38 to 7.6 µg/mL).

Consider `CCc1nc2cc(Cl)ccn2c1C(=O)NCc1ccc(-n2cccc2)cc1` [Compound 138, N-(4-(1H-Pyrrol-1-yl)benzyl)-7-chloro-2-ethylimidazo[1,2-a]pyridine-3-carboxamide], for which the MIC in assay [1] and in assay [2] was < 1 µM each time.

`CCc1nc2ccc(Cl)cn2c1C(=O)NCc1ccc(N2CCC(Oc3ccc(OC(F)(F)F)cc3)CC2)cc1` [Compound 139, 6-Chloro-2-ethyl-N-(4-(4-(4-(trifluoromethoxy)phenoxy)piperidin-1-yl)benzyl)imidazo-[1,2-a]pyridine-3-carboxamide]: the MIC in assay [1] and in assay [2] was < 1 µM in each case.

For the compound `CCc1nc2cc(Cl)ccn2c1C(=O)NCc1ccc(N2CCC(Oc3ccc(OC(F)(F)F)cc3)CC2)cc1` [Compound 140, 7-Chloro-2-ethyl-N-(4-(4-(4-(trifluoromethoxy)phenoxy)piperidin-1-yl)benzyl)imidazo-[1,2-a]pyridine-3-carboxamide], the MIC in assay [1] and in assay [2] was < 1 µM in each case.

Regarding `CCc1nc2cnccn2c1C(=O)NCc1ccc(-c2ccc(Cl)cc2)cc1` [Compound 141, N-((4′-Chlorobiphenyl-4-yl)methyl)-2-ethylimidazo[1,2-a]pyrazine-3-carboxamide], the MIC in assay [1] and in assay [2] was < 1 µM in each case.

Turning to `CCc1nc2cc(Cl)ccn2c1NC(=O)c1ccc(-c2ccccc2)cc1` [Compound 142, N-(7-Chloro-2-ethylimidazo[1,2-a]pyridin-3-yl)biphenyl-4-carboxamide], the MIC in assay [1] and in assay [2] was > 20 µM in each case.

Turning to `CCc1nc2cc(Cl)ccn2c1NC(=O)Cc1ccc(-c2ccccc2)cc1` [Compound 143, 2-(Biphenyl-4-yl)-N-(7-chloro-2-ethylimidazo[1,2-a]pyridin-3-yl)acetamide], the MIC is < 1 µM in assay [1] and 1 to 20 µM (≈ 0.39 to 7.8 µg/mL) in assay [2].

Consider `CCCC(=O)NCc1ccc(N2CCN(c3ccc(CNC(=O)c4c(CC)nc5cc(Cl)ccn45)cc3)CC2)cc1` [Compound 144, N-(4-(4-(4-(Butyramidomethyl)phenyl)piperazin-1-yl)benzyl)-7-chloro-2-ethylimidazo-[1,2-a]pyridine-3-carboxamide], for which the MIC in assay [1] and in assay [2] was < 1 µM throughout.
